In US5322848A, “N-acyl-substituted azacyclic compounds, processes for their preparation, and their use as pharmaceuticals” (Dr. Lo Zembeletti S.p.A., priority 1989, dated 1994):
Where a name gives a salt, the structure may show the parent alone.

Legend:
Assay type in all cases: in vivo, Male Charles River mice (Swiss Strain)
mice (tail-flick) [1] = assay: Duration of action, mouse tail-flick graded, % activity at MTFQ ED50; conditions: sc, data referred to the free base
Protocol: (§1) B) Tail-flick test in mice
(§2) The methodology employed is based on that described by D'Amour and Smith, J. Pharmacol. Exp. Ther. 72, 74/1941.
(§3) Males Charles River mice (Swiss Strain), 22-34 g body weight were used. Animals were allowed food and water ad libitum and were randomized into groups of 10 prior to experimentation.
Test compounds were dissolved in either distilled water or distilled water plug 0. 1M AMS and administered by the subcutaneous route in a final volume of 10 ml/Kg. Control animals received 10 ml/kg of the appropriate vehicle alone. […]
(§4) Percentage quantal protection was determined as the number of mice in which the reaction time was doubled compared to pretreatment values, expressed as a percentage of the total number of mice in the group.

mice (tail-flick) [2] = assay: Tail-flick test in mice; conditions: 30 min pretreatment, data referred to the free base; for ED50: Mus musculus, sc, 0.5 h, subcutaneous, read-out: ANALGESIA MOUSE TAIL-FLICK ED50; for ANALGESIA MOUSE TAIL-FLICK, % at 10 mg: 10 mg (mg/kg sc)
Protocol: as §1, §2, §3
Test compounds were dissolved in either distilled water or distilled water plug 0. 1M AMS and administered by the subcutaneous route in a final volume of 10 ml/Kg. Control animals received 10 ml/kg of the appropriate vehicle alone. Following a pretreatment period of 30 min., the mice were again placed under the heat source and the reaction tine re-determined.
as §4

[3] = system: mice (p-phenylquinone-induced abdominal writhing); assay: P-phenylquinone-induced abdominal writhing test in mice; conditions: Mus musculus, sc, 20 min; subcutaneous; 20 min pretreatment; data referred to the free base; read-out: ANALGESIA MOUSE WRITHING ED50
Protocol: A) P-phenylquinone-induced abdominal writhing rest in mice
The methodology employed is based on that described by Sigmund et al, Proc. Soc. Exptl. Biol. 95, 729/1957, modified by Milne and Twomey, Agents and Actions, 10, 31/1980.
Male Charles River mice (Swiss Strain), 25-36 g body weight, were used. Animals were allowed food and water ad libitum and were randomized into groups of 10 prior to experimentation. Test compounds were dissolved in either distilled water or distilled water plus 0.1 M AMS, and administered by the subcutaneous route in a final volume of 10 ml/Kg. Control animals received 10 ml/Kg of the appropriate vehicle alone. Following a pretreatment period of 20 min., mice were injected intraperitoneally with p-phenylquinone, 2 mg/Kg at 37° C. in a final volume of […]. […] During this period the number of abdominal writhing responses per animal were recorded where writhing consists of an intermittent contraction of the abdomen associated with hind leg extension.
The degree of antinociceptive protection afforded by the test co mound was determined as the mean number of writhing responses observed in the treated group (T) expressed as a percentage of the mean number of writhing response in the control group (C) according to the following formula:
[1-(T/C]×100%=% graded protection

SMILES	DURATION OF ACTION M. TAIL-FLICK GRADED % ACTIVITY AT MTFQ ED50, 30' (mice (tail-flick) [1]) [%]	DURATION OF ACTION M. TAIL-FLICK GRADED % ACTIVITY AT MTFQ ED50, 90' (mice (tail-flick) [1]) [%]	ED50 (mice (tail-flick) [2]) [mg/kg]	ED50 [3] [mg/kg]	ANALGESIA MOUSE TAIL-FLICK, % at 10 mg (mice (tail-flick) [2]) [%]
CC1(C)CN(C(=O)Cc2ccc(Cl)c(Cl)c2)C(CN2CCC(O)C2)c2ccccc21 (stereo not drawn) [Example 14, 1-(3-hydroxypyrrolidin-1-yl)methyl-2-(3,4-dichlorophenyl)acetyl 4,4-dimethyl-1,2,3,4-tetrahydroisoquinoline hydrochloride]	93	85	0.898	0.087	
O=C1CCCc2cc(CC(=O)N3CCCCC3CN3CCC(F)C3)ccc21 (stereo not drawn) [Example 22, 1-[1-oxo-3,4-dihydro-(2H)-napht-6-yl]acetyl-2-(3-fluoropyrrolidin-1-yl)methyl piperidine hydrochloride]	75	40	0.065	0.005	
CC1(C)CCCN(C(=O)Cc2ccc(Cl)c(Cl)c2)C1CN1CCC(O)C1 (stereo not drawn) [Example 6, 1-(3,4-dichlorophenyl)acetyl-2-(3-hydroxypyrrolidin-1-yl)methyl-3,3-dimethyl piperidine hydrochloride]	87	100	0.233	0.081	
COC1CCN(CC2CCCCN2C(=O)Cc2ccc(C(F)(F)F)cc2)C1 (stereo not drawn) [Example 20, 1-(4-trifluoromethylphenyl)acetyl-2-(3-methoxypyrrolidin-1-yl) methyl piperidine]					80
CC1(C)CCN(C(=O)Cc2ccc(Cl)c(Cl)c2)C(CN2CCC(O)C2)C1 (stereo not drawn) [Example 7, 1-(3,4-dichlorophenyl)acetyl-2-(3-hydroxypyrrolidin-1-yl)methyl-4,4-dimethyl piperidine hydrochloride hemihydrate]	84	74	0.25	0.037	
O=C1CCCc2cc(CC(=O)N3CCCCC3CN3CCC(O)C3)ccc21 (stereo not drawn) [Example 17, 1-[1-oxo-3,4-dihydro-(2H)-napht-6-yl]acetyl-2-(3-hydroxy-pyrrolidin-1-yl)methyl piperidine]	78	80	3.24	1.78	
COC1CCN(CC2CCCCN2C(=O)Cc2ccc(Cl)c(Cl)c2)C1 (stereo not drawn) [Example 19, 1-(3,4-dichlorophenyl)acetyl-2-(3-methoxypyrrolidin-1-yl)methyl piperidine]					80
CC1(C)CCCN(C(=O)Cc2ccc(C(F)(F)F)cc2)C1CN1CCC(F)C1 (stereo not drawn) [Example 23, 1-(4-trifluoromethylphenyl)acetyl-2-(3-fluoropyrrolidin-1-yl) methyl-3,3-dimethylpiperidine hydrochloride]	90	86	0.005	0.003	
CC1(C)CCCN(C(=O)Cc2ccc(C(F)(F)F)cc2)C1CN1CCC(O)C1 (stereo not drawn) [Example 5, 1-(4-trifluoromethylphenyl)acetyl-2-(3-hydroxypyrrolidin-1-yl) methyl-3,3-dimethyl piperidine hydrochloride]	78	82	0.225	0.089	
O=C(Cc1ccc(Cl)c(Cl)c1)N1CCCCC1CN1CCC(F)C1 (stereo not drawn) [Example 18, 1-(3,4-dichlorophenyl)acetyl-2-(3-fluoropyrrolidin-1-yl)methyl piperidine hydrochloride]	80	34	0.021	0.002	
C[C@]1(O)CCN(C[C@H]2CCCCN2C(=O)Cc2ccc(Cl)c(Cl)c2)C1.Cl [Example 9, (R,S)-1-(3,4-dichlorophenyl)acetyl-2-(3-hydroxy-3-methylpyrrolidin-1-yl) methyl piperidine hydrochloride]					40
CC1(C)CCN(C(=O)Cc2ccc3c(c2)CCCC3=O)C(CN2CCC(F)C2)C1 (stereo not drawn) [Example 25, 1-[1-oxo-3,4-dihydro-(2H)-napht-6-yl]acetyl-2-(3-fluoropyrrolidin-1-yl)methyl-4,4-dimethyl piperidine hydrochloride]	74	56	0.47	0.005	
